# Assay results reported in patent US7074807B2, “Compositions and methods for inducing cell death” (Georgetown University, priority 1998, dated 2006).
# Tests used:
# [1] = test system: PCI-04A cells; assay: Apoptosis assay (annexin V-FITC/propidium iodide flow cytometry); conditions: 10 mM, PCI-04A
# Procedure: (§1) FIGS. (7A1–7A3), (7B1–7B2), (7C1–7C3), (7D1–7D2), (7E1–7E3), (7F1–7F2). […] Cells were grown in serum-free medium overnight in T-25 flasks and treated with tempol (10 mM) or tempo (10 mM) for various times, trypsinized, and then resuspended in 200 ul 1× binding buffer as described in experimental procedures. The cell suspension was double-stained with annexin V-FITC and propidium iodide and analyzed by flow cytometry. Background signal was determined by comparison with double-stained, single-stained, or unstained control cells. (7A1–7A3), (7C1–7C3), and (7E1–7E3) are cytograms showing a relative distribution of viable (V), apoptotic (A), and necrotic (N) cells at 2 h following tempol or tempo treatment of MDA-MB 231 cells (A), PCI-04A cells (C), and PC-3 cells (E). (7B1–7B3), (7D1–7D2), and (7F1–7F2) are time course analyses of MDA-MB 231 cells (B), PCT-04A cells (D), and PC-3 cells (F). 100,000 cells were analyzed at each time point in triplicate (B) or quadruplicate (D and F). Solid bars, 1% ethanol, striped bars, 10 mM tempol, empty bars, 10 mM tempo. […] Data shown are representative from three to four independent experiments. (7B1–7B2), Time course analysis of MDA-MB 231 cells undergoing apoptosis (annexin V-FITC staining) (7B1), or necrosis (propidium iodide staining) (7B2). Values shown are mean±s.d. of triplicate determinations per time point in each treatment category, and representative of three to four independent experiments. […] (7D1–7D2), Time course analysis of PCI-04A cells undergoing apoptosis (annexin V-FITC staining) (7D1), or necrosis (propidium iodide staining) (7D2). Values shown are mean±s.d. of quadruplicate determinations per time point in each treatment category. […] (7F1–7F2), Time course analysis of PC-3 cells undergoing apoptosis (annexin V-FITC staining) (7F1), or necrosis (propidium iodide staining) (7F2). Values shown are mean±s.d. of quadruplicate determinations per time point in each treatment category. Control/C, cells treated with 1% ethanol for 2 h.
# Apoptosis Assay—ApoAlert Annexin V apoptosis detection system (Clontech Lab Inc., Palo Alto, Calif.) was used to measure the relative distribution of apoptotic and necrotic cells. Briefly, cells were seeded at a density of 1×10^6 cells per 25 cm^2 tissue culture flask in medium containing 10% FBS overnight, followed by washing twice in serum-free medium. Cells were maintained overnight in serum-free medium and exposed to tempol (10 mM) or tempo (10 mM) for various times. This was followed by rinsing twice with serum-free medium prior to trypsinization, dilution in two volumes of serum-free medium, and centrifugation at 10,000× g. The cell pellet was washed once with PBS and resuspended in 200 ul of 1× binding buffer. The cell suspension was double-labeled with fluorescein isothiocyanate (FITC)-labeled annexin V (10 ul) and propidium iodide (PI) (10 ul) according to the manufacturer's instructions. Unlabeled cells or untreated cells labeled with either FITC-annexin V or PI, or double-labeled served as internal controls for the background signal. The intensity of the dye uptake by cells was detected using FACStar plus Flow Cytometer (Becton Dickerson, Lincoln Park, N.J.), and data were analyzed using Reproman True Facts software (Seattle, Wash.). Viable cells were FITC−/PI−, apoptotic cells were FITC+/PI−, and necrotic cells were FITC+/PI+.
# [2] = test system: PC-3 cells; assay: Apoptosis assay (annexin V-FITC/propidium iodide flow cytometry), serum-free; conditions: 10 mM, 2 h, PC-3
# Procedure: as §1
# Apoptosis Assay—ApoAlert Annexin V apoptosis detection system (Clontech Lab Inc., Palo Alto, Calif.) was used to measure the relative distribution of apoptotic and necrotic cells. Briefly, cells were seeded at a density of 1×10^6 cells per 25 cm^2 tissue culture flask in medium containing 10% FBS overnight, followed by washing twice in serum-free medium. Cells were maintained overnight in serum-free medium and exposed to tempol (10 mM) or tempo (10 mM) for various times. […] The intensity of the dye uptake by cells was detected using FACStar plus Flow Cytometer (Becton Dickerson, Lincoln Park, N.J.), and data were analyzed using Reproman True Facts software (Seattle, Wash.). […]
# [3] = test system: MDA-MB 231 cells; assay: Ceramide generation assay (DAG kinase assay); type: cell-based, human; conditions: 10 mM
# Procedure: FIG. 8. Ceramide production in tempo-treated MDA-MB 231 cells. Logarithmically growing cells were cultured in serum-free medium overnight in 60 mm dishes, and treated with tempol (10 mM) and tempo (10 mM) for indicated times, followed by lipid extraction, and quantitation of ceramide by DAG kinase assay as described in experimental procedures. The organic phase extract containing the [γ^32P]-labeled ceramide was quantitated. Control cells were grown overnight in serum-free medium, followed by treatment with 1% ethanol for various times ranging from 0.5 h to 2 h. Tempol/tempo treatment values shown are the mean±s.d. of triplicate determinations, the value at each time point normalized to control (100%).
# Ceramide Generation Assay—Ceramide production in MDA-MB 231 cells was determined by diacylglycerol (DAG) kinase assay according to a previously described procedure (Haimovitz-Friedman, A. et al., 1994, J. Exp. Med. 180, 525–535; Dressler, K. A. and Kolesnick, R. N., 1990, J. Biol. Chem. 265, 14917–14921). Briefly, MDA-MB 231 cells were split (1:2), and after 24 h, the cells were washed twice with PBS and serum-free medium was added, followed by incubation for additional 24 h. The cells (˜2×10^6/60 mm dish) were treated with tempo (10 mM) or tempol (10 mM) for various times. Following treatment, floating cells were collected and pelleted by centrifugation for 10 min at 1200 rpm, and attached cells were collected by scraping. Lipids were extracted from all cells (floating and attached) by incubation in 1 ml 100% ice-cold methanol. After a partial purification with chloroform, the extracted lipid in the organic phase was dried under N2 and was treated with a mild alkaline solution (0.1 N KOH in methanol) for 1 h at 37° C. to remove glycerolphospholipids. […] The spot containing the ceramide-1-phosphate was visualized by autoradiography, and the incorporated ^32P was removed by scraping, and quantified by Cerenkov counting. […]
Structure (SMILES),apoptotic cells (A) ([1]; 2 h),apoptotic cells (A) [2],level of ceramide generated compared to control cells ([3]; all time points),viable cells (V) ([1]; 2 h),apoptosis and necrosis ([1]; 2 h post-treatment),viable cells (V) [2],"increase over control in ceramide level ([3]; 30 min, control normalized to 100%)","ceramide level over control ([3]; 1 h, control normalized to 100%)"
"CC1(C)CC(O)CC(C)(C)N1[O] [tempol, 4-hydroxy-tempo, reference compound]",5.44%,1.20%,not significantly higher,–,–,–,–,–
"CC1(C)CCCC(C)(C)N1[O] [tempo, 2,2,6,6-tetramethylpiperidine-N-oxyl]",48.35%,2.57%,–,18.61%,significant level of apoptosis and necrosis,10.76%,54%,71%
